Reference: patent US20240307526A1, “COMPOSITIONS COMPRISING HYDROXYETHYL-CAPPED CATIONIC PEPTOIDS” (priority 2021, published 2024)

Experiment: Efficacy and toxicology studies (Table 9), intramuscular in rat
Settings: mouse efficacy and rat toxicology studies; formulated in DV-140-F2

With `CCCCCCCCCCN(CC(N)=O)C(=O)CN(CCCCCCCCCC)C(=O)CN(CCCCCCCCCC)C(=O)CN(CCCCCCCCCC)C(=O)CNCCO` [Compound 140] the tolerability was “well-tolerated”.
